# Measured values published in US20020137929A1, “1 - (3-heterocyclylphenyl) isothiourea, -isourea, -guanidine and -amidine herbicidal agents” (Intellectual Property Department, BASF Aktiengesellschaft, priority 1998, published 2002).
# Assays:
# CASOB (Sicklepod) = experiment: Postemergence herbicidal evaluation; type: in vivo, Cassia obtusifolia; conditions: postemergence
# Summary of the method: (§1)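 Seedlings grown about two weeks were sprayed at 40 psi with compound dispersed in 50/50 acetone/water plus 0.5% TWEEN 20, at about 0.0156 to 0.500 kg/ha. Plants were kept in the greenhouse and scored 4–5 weeks later on a 0–9 visual scale against untreated controls.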
# [1] = tested on: CHEAL (Lambsquarters, Common); experiment: Postemergence herbicidal evaluation; type: in vivo, Chenopodium album; conditions: postemergence
# Summary of the method: as §1
# GALAP (Galium) = experiment: Postemergence herbicidal evaluation; type: in vivo, Galium aparine; conditions: postemergence
# Summary of the method: as §1
# ORYSAT (Rice, Tebonnet) [2] = experiment: Postemergence herbicidal evaluation; type: in vivo, Oryza sativa, (L.) Tebonnet; conditions: postemergence
# Summary of the method: as §1
# ZEAMX (Corn, Field) = experiment: Postemergence herbicidal evaluation; type: in vivo, Zea mays; conditions: postemergence
# Summary of the method: as §1
# AMBEL (Ragweed, Common) = experiment: Preemergence herbicidal evaluation; type: in vivo, Ambrosia artemisifolia; conditions: rated 4-5 weeks after treatment
# Summary of the method: (§2)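 Test compound, dissolved in aqueous acetone, was sprayed over planted soil cups at an equivalent of about 0.0156 to 0.500 kg/ha; seeds had been mixed with potting soil. Greenhouse growth followed, with visual 0-9 scoring of injury at four to five weeks.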
# SETVI (Foxtail, Green) = experiment: Preemergence herbicidal evaluation; type: in vivo, Setaria viridis; conditions: rated 4-5 weeks after treatment
# Summary of the method: as §2
# [3] = tested on: GLXMAW (Soybean, Williams); experiment: Preemergence herbicidal evaluation; type: in vivo, Glycine max, (L.) Merr. cv Williams; conditions: rated 4-5 weeks after treatment
# Summary of the method: as §2
# ORYSAT (Rice, Tebonnet) [4] = experiment: Preemergence herbicidal evaluation; type: in vivo, Oryza sativa, (L.) Tebonnet; conditions: rated 4-5 weeks after treatment
# Summary of the method: as §2
# CYPSE (Flatsedge) [5] = experiment: Preemergence weed control under flooded paddy conditions; type: in vivo, Cyperus serotinus; conditions: rated 3-4 weeks after treatment
# Summary of the method: (§3)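 Visual injury scored 0-9 against control three to four weeks post-treatment, greenhouse-grown. Application: acetone/water (50/50) solutions dosed directly into flood water (1.5-3 cm over silt loam, planted top 0.5 cm), roughly 0.0313 to 0.500 kg/ha active ingredient.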
# MOOVA (Monochoria) = experiment: as above; type: in vivo, Monochoria vaginalis; conditions: rated 3-4 weeks after treatment
# Summary of the method: as §3
# CYPIR (Rice Flatsedge) = experiment: Postemergence weed control under flooded paddy conditions; type: in vivo, Cyperus iria; conditions: postemergence weeds, rated 3 to 4 weeks after treatment
# Summary of the method: (§4)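 Flood-water application, about 0.0313–0.500 kg/ha a.i. in aqueous/acetone 50/50 v/v; water depth 1.5–3 cm throughout. Weeds 3–5 cm, rice 1.5–2.5 leaf. Greenhouse; 0–9 visual rating vs control at 3–4 wk.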
# CYPSE (Flatsedge) [6] = experiment: as above; type: in vivo, Cyperus serotinus; conditions: postemergence weeds, rated 3 to 4 weeks after treatment
# Summary of the method: as §4
# [7] = tested on: SAGPY (Arrowhead (Pygmaea)); experiment: as above; type: in vivo, Sagittaria pygmaea; conditions: postemergence weeds, rated 3 to 4 weeks after treatment
# Summary of the method: as §4
structure (smiles),measurement,setting,value
"Cn1c(C(F)(F)F)cc(=O)n(-c2cc(N=C3SCC(=O)N3CC(=O)OCC#N)c(Cl)cc2F)c1=O [Compound 109, 2-{{2-Chloro-5-[3,6-dihydro-3-methyl-2,6-dioxo-4-(trifluoromethyl)-1(2H)-pyrimidinyl]-4-fluorophenyl}imino}-4-oxo-3-thiazolidineacetic acid, ester with glycolonitrile]",herbicidal rating CASOB,CASOB (Sicklepod); rate 0.0158 kg/ha,1.0
same,herbicidal rating CASOB,CASOB (Sicklepod); rate 0.0315 kg/ha,7.0
same,herbicidal rating CASOB,CASOB (Sicklepod); rate 0.0630 kg/ha,9.0
same,herbicidal rating CHEAL,[1]; rate 0.0158 kg/ha,9.0
same,herbicidal rating CHEAL,[1]; rate 0.0315 kg/ha,9.0
same,herbicidal rating CHEAL,[1]; rate 0.0630 kg/ha,9.0
same,herbicidal rating GALAP,GALAP (Galium); rate 0.0158 kg/ha,1.0
same,herbicidal rating GALAP,GALAP (Galium); rate 0.0315 kg/ha,3.0
same,herbicidal rating GALAP,GALAP (Galium); rate 0.0630 kg/ha,5.0
same,herbicidal rating ORYSAT,"ORYSAT (Rice, Tebonnet) [2]; rate 0.0158 kg/ha",3.0
same,herbicidal rating ORYSAT,"ORYSAT (Rice, Tebonnet) [2]; rate 0.0315 kg/ha",4.5
same,herbicidal rating ORYSAT,"ORYSAT (Rice, Tebonnet) [2]; rate 0.0630 kg/ha",5.0
same,herbicidal rating ZEAMX,"ZEAMX (Corn, Field); rate 0.0158 kg/ha",6.5
same,herbicidal rating ZEAMX,"ZEAMX (Corn, Field); rate 0.0315 kg/ha",6.5
same,herbicidal rating ZEAMX,"ZEAMX (Corn, Field); rate 0.0630 kg/ha",7.0
same,Preemergence herbicidal rating AMBEL,"AMBEL (Ragweed, Common); rate 0.0156 kg/ha",3.0
same,Preemergence herbicidal rating AMBEL,"AMBEL (Ragweed, Common); rate 0.0313 kg/ha",3.0
same,Preemergence herbicidal rating AMBEL,"AMBEL (Ragweed, Common); rate 0.0625 kg/ha",8.0
same,Preemergence herbicidal rating AMBEL,"AMBEL (Ragweed, Common); rate 0.1250 kg/ha",9.0
same,Preemergence herbicidal rating AMBEL,"AMBEL (Ragweed, Common); rate 0.2500 kg/ha",9.0
same,Preemergence herbicidal rating AMBEL,"AMBEL (Ragweed, Common); rate 0.5000 kg/ha",9.0
same,Preemergence herbicidal rating SETVI,"SETVI (Foxtail, Green); rate 0.0156 kg/ha",5.5
same,Preemergence herbicidal rating SETVI,"SETVI (Foxtail, Green); rate 0.0313 kg/ha",6.0
same,Preemergence herbicidal rating SETVI,"SETVI (Foxtail, Green); rate 0.0625 kg/ha",9.0
same,Preemergence herbicidal rating SETVI,"SETVI (Foxtail, Green); rate 0.1250 kg/ha",9.0
same,Preemergence herbicidal rating SETVI,"SETVI (Foxtail, Green); rate 0.2500 kg/ha",9.0
same,Preemergence herbicidal rating SETVI,"SETVI (Foxtail, Green); rate 0.5000 kg/ha",9.0
same,Preemergence herbicidal rating GLXMAW,[3]; rate 0.0156 kg/ha,1.5
same,Preemergence herbicidal rating GLXMAW,[3]; rate 0.0313 kg/ha,2.0
same,Preemergence herbicidal rating GLXMAW,[3]; rate 0.0625 kg/ha,5.0
same,Preemergence herbicidal rating GLXMAW,[3]; rate 0.1250 kg/ha,7.5
same,Preemergence herbicidal rating GLXMAW,[3]; rate 0.2500 kg/ha,9.0
same,Preemergence herbicidal rating GLXMAW,[3]; rate 0.5000 kg/ha,9.0
same,Preemergence herbicidal rating ORYSAT,"ORYSAT (Rice, Tebonnet) [4]; rate 0.0156 kg/ha",0.0
same,Preemergence herbicidal rating ORYSAT,"ORYSAT (Rice, Tebonnet) [4]; rate 0.0313 kg/ha",1.0
same,Preemergence herbicidal rating ORYSAT,"ORYSAT (Rice, Tebonnet) [4]; rate 0.0625 kg/ha",2.0
same,Preemergence herbicidal rating ORYSAT,"ORYSAT (Rice, Tebonnet) [4]; rate 0.1250 kg/ha",4.0
same,Preemergence herbicidal rating ORYSAT,"ORYSAT (Rice, Tebonnet) [4]; rate 0.2500 kg/ha",5.0
same,Preemergence herbicidal rating ORYSAT,"ORYSAT (Rice, Tebonnet) [4]; rate 0.5000 kg/ha",6.0
same,CYPSE herbicidal effect rating,CYPSE (Flatsedge) [5]; 0.0313 kg/ha,4.5
same,CYPSE herbicidal effect rating,CYPSE (Flatsedge) [5]; 0.0625 kg/ha,5.5
same,CYPSE herbicidal effect rating,CYPSE (Flatsedge) [5]; 0.1250 kg/ha,9.0
same,CYPSE herbicidal effect rating,CYPSE (Flatsedge) [5]; 0.2500 kg/ha,6.5
same,MOOVA herbicidal effect rating,MOOVA (Monochoria); 0.0313 kg/ha,7.0
same,MOOVA herbicidal effect rating,MOOVA (Monochoria); 0.0625 kg/ha,9.0
same,MOOVA herbicidal effect rating,MOOVA (Monochoria); 0.1250 kg/ha,9.0
same,MOOVA herbicidal effect rating,MOOVA (Monochoria); 0.2500 kg/ha,9.0
same,Herbicidal rating CYPIR,CYPIR (Rice Flatsedge); Rate 0.0313 kg/ha,0.0
same,Herbicidal rating CYPIR,CYPIR (Rice Flatsedge); Rate 0.0625 kg/ha,2.0
same,Herbicidal rating CYPIR,CYPIR (Rice Flatsedge); Rate 0.1250 kg/ha,4.0
same,Herbicidal rating CYPIR,CYPIR (Rice Flatsedge); Rate 0.2500 kg/ha,7.0
same,Herbicidal rating CYPSE,CYPSE (Flatsedge) [6]; Rate 0.0313 kg/ha,0.0
same,Herbicidal rating CYPSE,CYPSE (Flatsedge) [6]; Rate 0.0625 kg/ha,0.0
same,Herbicidal rating CYPSE,CYPSE (Flatsedge) [6]; Rate 0.2500 kg/ha,7.0
same,Herbicidal rating SAGPY,[7]; Rate 0.0313 kg/ha,0.0
same,Herbicidal rating SAGPY,[7]; Rate 0.0625 kg/ha,0.0
same,Herbicidal rating SAGPY,[7]; Rate 0.1250 kg/ha,0.0
same,Herbicidal rating SAGPY,[7]; Rate 0.2500 kg/ha,0.0
